Reference: US7932270B2 (Cytokinetics, Inc., priority 2006, dated 2011)

Biological target: T1, chicken gizzard smooth muscle myosin subfragment-1 chemically crosslinked to cardiac or skeletal actin (Gallus gallus, UniProt P10587)
T1 construct: chicken gizzard smooth muscle myosin subfragment-1; from tissue; host or cells: chicken gizzard
Assay: Smooth muscle myosin ATPase dose response assay (pyruvate kinase/horseradish peroxidase/pyruvate oxidase-coupled, amplex red fluorescence)
Format: biochemical
Settings: read-out: IC50 Arithmetic Mean
Procedure, shortened: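 Chicken gizzard myosin S1 crosslinked to cardiac or skeletal actin, titrated to a set hydrolysis rate; 0.15 mM ATP, 12 mM PIPES pH 7.00, 100 mM KCl, 2 mM MgCl2. Pyruvate kinase/pyruvate oxidase/HRP coupling with amplex red fluorescence; IC50 from 4-parameter fit.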

T1 sequence (P02607 2-151): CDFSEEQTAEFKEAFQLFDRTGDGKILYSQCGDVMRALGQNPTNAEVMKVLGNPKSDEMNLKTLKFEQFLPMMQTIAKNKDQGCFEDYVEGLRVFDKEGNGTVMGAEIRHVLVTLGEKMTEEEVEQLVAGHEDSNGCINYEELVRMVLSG
T1 sequence (P10587 84-789): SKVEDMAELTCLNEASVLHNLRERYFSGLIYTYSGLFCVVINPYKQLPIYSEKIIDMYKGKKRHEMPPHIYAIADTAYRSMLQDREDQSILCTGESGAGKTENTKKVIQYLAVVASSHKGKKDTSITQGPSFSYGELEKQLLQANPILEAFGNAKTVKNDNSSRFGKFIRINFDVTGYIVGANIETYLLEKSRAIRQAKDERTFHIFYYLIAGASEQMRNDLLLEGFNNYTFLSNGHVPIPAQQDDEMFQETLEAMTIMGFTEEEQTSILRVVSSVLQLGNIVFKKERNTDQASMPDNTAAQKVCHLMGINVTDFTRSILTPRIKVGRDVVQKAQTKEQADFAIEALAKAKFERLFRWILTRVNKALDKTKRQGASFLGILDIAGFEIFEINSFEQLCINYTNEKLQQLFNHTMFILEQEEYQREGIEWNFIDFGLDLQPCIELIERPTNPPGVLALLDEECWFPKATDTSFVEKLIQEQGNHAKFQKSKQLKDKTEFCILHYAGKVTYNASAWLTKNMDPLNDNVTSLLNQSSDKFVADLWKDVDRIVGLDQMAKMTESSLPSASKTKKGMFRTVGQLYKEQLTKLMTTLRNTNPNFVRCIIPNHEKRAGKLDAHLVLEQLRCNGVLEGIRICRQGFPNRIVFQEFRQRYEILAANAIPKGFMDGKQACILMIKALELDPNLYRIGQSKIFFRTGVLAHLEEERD

Row | SMILES | IC50 [nM]
1 | O=C1CNCC(CNC(=O)c2ccc(-c3cn[nH]c3)nc2NCCc2cccc(F)c2)N1 (centres unmarked) [(2-{[2-(3-fluorophenyl)ethyl]amino}-6-pyrazol-4-yl(3-pyridyl))-N-[(6-oxopiperazin-2-yl)methyl]carboxamide] | 973
2 | CN(C)c1ccc(CNC(=O)c2ccc(-c3ccccc3C#N)nc2NCCc2cccc(F)c2)cn1 [N-{[6-(dimethylamino)(3-pyridyl)]methyl}(6-(2-cyanophenyl)-2-{[2-(3-fluorophenyl)ethyl]amino}(3-pyridyl))carboxamide] | 30200
3 | N#Cc1ccccc1-c1ccc(C(=O)NCC(=O)NCCC(N)=O)c(NCCc2cccc(F)c2)n1 [N-(2-carbamoylethyl)-2-[(6-(2-cyanophenyl)-2-{[2-(3-fluorophenyl)ethyl]amino}(3-pyridyl))carbonylamino]acetamide] | 12200
4 | Cc1cc(C(=O)NC[C@H]2CCC(=O)N2CCCNC(=O)OC(C)(C)C)c(NCCc2cccc(F)c2)nc1-c1ccccc1C#N [N-[3-((5R)-5-{[(6-(2-cyanophenyl)-2-{[2-(3-fluorophenyl)ethyl]amino}-5-methyl(3-pyridyl))carbonylamino]methyl}-2-oxopyrrolidinyl)propyl](tert-butoxy)carboxamide] | 5370
5 | COCc1cccc(-c2ccc(C(=O)NCc3cccnc3)c(NCCc3cccc(F)c3)n2)c1 [(2-{[2-(3-fluorophenyl)ethyl]amino}-6-[3-(methoxymethyl)phenyl](3-pyridyl))-N-(3-pyridylmethyl)carboxamide] | 5720
6 | CNC(=O)[C@@H](N)CCNC(=O)c1ccc(-c2ccccc2C#N)nc1NCCc1cccc(F)c1 [(2S)-2-amino-4-[(6-(2-cyanophenyl)-2-{[2-(3-fluorophenyl)ethyl]amino}(3-pyridyl))carbonylamino]-N-methylbutanamide] | 5020
7 | O=C1CNC[C@@H](CNC(=O)c2ccc(-c3cn[nH]c3)nc2NCCc2cccc(F)c2)N1 [N-[((2S)-6-oxopiperazin-2-yl)methyl](2-{[2-(3-fluorophenyl)ethyl]amino}-6-pyrazol-4-yl(3-pyridyl))carboxamide] | 16000
8 | C[C@H](CNC(=O)c1cc(F)c(-c2cnn(C)c2)nc1NCCc1cccc(F)c1)C(=O)O [(2R)-3-[(5-fluoro-2-{[2-(3-fluorophenyl)ethyl]amino}-6-(1-methylpyrazol-4-yl)(3-pyridyl))carbonylamino]-2-methylpropanoic acid] | 3840
9 | CC(C)(C)OC(=O)NCCCN1C(=O)CC[C@@H]1CNC(=O)c1cc(F)c(-c2ccccc2C#N)nc1NCCc1cccc(F)c1 [N-[((2R)-1-{3-[(tert-butoxy)carbonylamino]propyl}-5-oxopyrrolidin-2-yl)methyl](6-(2-cyanophenyl)-5-fluoro-2-{[2-(3-fluorophenyl)ethyl]amino}(3-pyridyl))carboxamide] | 845
10 | COC(=O)c1cccc(CCNc2nc(-c3ccccc3)ccc2C(=O)NCc2cccnc2)c1 [methyl 3-[2-({6-phenyl-3-[N-(3-pyridylmethyl)carbamoyl]-2-pyridyl}amino)ethyl]benzoate] | 28100
11 | O=C(NCc1cccnc1)c1ccc(-c2ccc(F)c(F)c2)nc1NCCc1ccccn1 [{6-(3,4-difluorophenyl)-2-[(2-(2-pyridyl)ethyl)amino](3-pyridyl)}-N-(3-pyridylmethyl)carboxamide] | 1210
12 | N#Cc1ccccc1-c1ccc(C(=O)NCCCCCCN)c(NCCc2cccc(F)c2)n1 [N-(6-aminohexyl)(6-(2-cyanophenyl)-2-{[2-(3-fluorophenyl)ethyl]amino}(3-pyridyl))carboxamide] | 1240
13 | NCc1ccc(-c2ccccc2)nc1NCCc1cccc(F)c1 [[3-(aminomethyl)-6-phenyl(2-pyridyl)][2-(3 fluorophenyl)ethyl]amine] | 39500
14 | CC(C)(C)OC(=O)NCc1ncccc1CNC(=O)c1ccc(-c2ccccc2C#N)nc1NCCc1cccc(F)c1 [N-[(2-{[(tert-butoxy)carbonylamino]methyl}(3-pyridyl))methyl](6-(2-cyanophenyl)-2-{[2-(3-fluorophenyl)ethyl]amino}(3-pyridyl))carboxamide] | 1210
15 | N#Cc1ccccc1-c1ccc(C(=O)NCC(=O)NCCCO)c(NCCc2cccc(F)c2)n1 [2-[(6-(2-cyanophenyl)-2-{[2-(3-fluorophenyl)ethyl]amino}(3-pyridyl))carbonylamino]-N-(3-hydroxypropyl)acetamide] | 5840
16 | N#Cc1cccc(-c2ccc(C(=O)NCc3cccnc3)c(NCCc3ccccn3)n2)c1 [{6-(3-cyanophenyl)-2-[(2-(2-pyridyl)ethyl)amino](3-pyridyl)}-N-(3-pyridylmethyl)carboxamide] | 2990
17 | CC(=O)N1CCN(C)C[C@@H]1CNC(=O)c1ccc(-c2ccccc2C#N)nc1NCCc1cccc(F)c1 [N-[((2S)-1-acetyl-4-methylpiperazin-2-yl)methyl](6-(2-cyanophenyl)-2-{[2-(3-fluorophenyl)ethyl]amino}(3-pyridyl))carboxamide] | 6790
18 | O=C(NCc1ncco1)c1ccc(-c2ccccc2)nc1NCCc1ccccn1 [N-(1,3-oxazol-2-ylmethyl){6-phenyl-2-[(2-(2-pyridyl)ethyl)amino](3-pyridyl)}carboxamide] | 4900
19 | CN(CCNC(=O)CNC(=O)c1ccc(-c2ccccc2C#N)nc1NCCc1cccc(F)c1)C(=O)OC(C)(C)C [N-{2-[(tert-butoxy)-N-methylcarbonylamino]ethyl}-2-[(6-(2-cyanophenyl)-2-{[2-(3-fluorophenyl)ethyl]amino}(3-pyridyl))carbonylamino]acetamide] | 65500

Further molecules by falling IC50, results first:

Row | IC50 [nM] | SMILES
20 | 963 | N#Cc1ccccc1-c1ccc(C(=O)NCC2CCNC2)c(NCCc2cccc(F)c2)n1 (centres unmarked) [(6-(2-cyanophenyl)-2-{[2-(3-fluorophenyl)ethyl]amino}(3-pyridyl))-N-(pyrrolidin-3-ylmethyl)carboxamide]
21 | 396 | COCCCNC(=O)c1ccc(-c2ccccc2C#N)nc1NCCc1cccc(F)c1 [(6-(2-cyanophenyl)-2-{[2-(3-fluorophenyl)ethyl]amino}(3-pyridyl))-N-(3-methoxypropyl)carboxamide]
22 | 224 | Cn1cc(-c2nc(NCCc3cccc(F)c3)c(C(=O)NCC(C)(C)CO)cc2F)cn1 [(5-fluoro-2-{[2-(3-fluorophenyl)ethyl]amino}-6-(1-methylpyrazol-4-yl)(3-pyridyl))-N-(3-hydroxy-2,2-dimethylpropyl)carboxamide]
23 | 131 | CC[C@H](CNC(=O)c1cc(F)c(-c2cnn(C)c2)nc1NCCc1cccc(F)c1)NC(=O)CN [N-((1R)-1-{[(5-fluoro-2-{[2-(3-fluorophenyl)ethyl]amino}-6-(1-methylpyrazol-4-yl)(3-pyridyl))carbonylamino]methyl}propyl)-2-aminoacetamide]
24 | 129 | NCCCNc1ncccc1CNC(=O)c1ccc(-c2cn[nH]c2)nc1NCCc1cccc(F)c1 [N-({2-[(3-aminopropyl)amino](3-pyridyl)}methyl)(2-{[2-(3-fluorophenyl)ethyl]amino}-6-pyrazol-4-yl(3-pyridyl))carboxamide]
25 | 116 | C[C@H](CNC(=O)c1cc(F)c(-c2cnn(C)c2)nc1NCCc1cccc(F)c1)NC(=O)CCCN
26 | 105 | N#Cc1[nH]ncc1-c1ccc(C(=O)NCc2cccnc2)c(NCCc2cccc(F)c2)n1 [(6-(5-cyanopyrazol-4-yl)-2-{[2-(3-fluorophenyl)ethyl]amino}(3-pyridyl))-N-(3-pyridylmethyl)carboxamide]
27 | 78 | Cn1cc(-c2nc(NCCc3cccc(F)c3)c(C(=O)NC[C@H]3CCCN3C(=O)[C@@H](N)CCCN)cc2F)cn1 [N-{[(2R)-1-((2S)-2,5-diaminopentanoyl)pyrrolidin-2-yl]methyl}(5-fluoro-2-{[2-(3-fluorophenyl)ethyl]amino}-6-(1-methylpyrazol-4-yl)(3-pyridyl))carboxamide]
28 | 70 | Cn1cc(-c2nc(NCCc3cccc(F)c3)c(C(=O)NC[C@H]3CCCN3C(=O)CCN)cc2F)cn1 [N-{[(2R)-1-(3-aminopropanoyl)pyrrolidin-2-yl]methyl}(5-fluoro-2-{[2-(3-fluorophenyl)ethyl]amino}-6-(1-methylpyrazol-4-yl)(3-pyridyl))carboxamide]
29 | 54 | Cc1cccc(CNC(=O)c2ccc(-c3ccccc3C#N)nc2NCCc2cccc(F)c2)n1 [(6-(2-cyanophenyl)-2-{[2-(3-fluorophenyl)ethyl]amino}(3-pyridyl))-N-[(6-methyl(2-pyridyl))methyl]carboxamide]
30 | 41 | N#Cc1ccccc1-c1ccc(C(=O)NCc2cccnc2)c(NCCc2cc(F)cc(F)c2)n1 [(2-{[2-(3,5-difluorophenyl)ethyl]amino}-6-(2-cyanophenyl)(3-pyridyl))-N-(3-pyridylmethyl)carboxamide]
31 | 39 | N#Cc1ccccc1-c1ccc(C(=O)NC[C@H]2CCC(=O)N2CCCCCN)c(NCCc2cccc(F)c2)n1 [N-{[(2R)-1-(5-aminopentyl)-5-oxopyrrolidin-2-yl]methyl}(6-(2-cyanophenyl)-2-{[2-(3-fluorophenyl)ethyl]amino}(3-pyridyl))carboxamide]
32 | 32 | Cn1ccc(-c2ccc(C(=O)NCc3cccnc3CN)c(NCCc3cccc(F)c3)n2)n1 [N-{[2-(aminomethyl)(3-pyridyl)]methyl}(2-{[2-(3-fluorophenyl)ethyl]amino}-6-(1-methylpyrazol-3-yl)(3-pyridyl))carboxamide]
33 | 24 | O=C(NCc1ccccn1)c1cc(F)c(-c2cn[nH]c2)nc1NCCc1cccc(F)c1 [(5-fluoro-2-{[2-(3-fluorophenyl)ethyl]amino}-6-pyrazol-4-yl(3-pyridyl))-N-(2-pyridylmethyl)carboxamide]
34 | 23 | N#Cc1ccccc1-c1ccc(C(=O)NC[C@H]2CCCN2C(=O)CCCN)c(NCCc2cc(F)cc(F)c2)n1 [N-{[(2R)-1-(4-aminobutanoyl)pyrrolidin-2-yl]methyl}(2-{[2-(3,5-difluorophenyl)ethyl]amino}-6-(2-cyanophenyl)(3-pyridyl))carboxamide]
35 | 5 | N#Cc1ccccc1-c1ccc(C(=O)NCc2cccc(NCCCN)n2)c(NCCc2cccc(F)c2)n1 [N-({6-[(3-aminopropyl)amino](2-pyridyl)}methyl)(6-(2-cyanophenyl)-2-{[2-(3-fluorophenyl)ethyl]amino}(3-pyridyl))carboxamide]
